In assay [1] the target is T1, AEA-DA lipid probe targets in Neuro2a cells (Mus musculus, UniProt Q3TZX3).
T1 sequence (Q3TZX3 1-320): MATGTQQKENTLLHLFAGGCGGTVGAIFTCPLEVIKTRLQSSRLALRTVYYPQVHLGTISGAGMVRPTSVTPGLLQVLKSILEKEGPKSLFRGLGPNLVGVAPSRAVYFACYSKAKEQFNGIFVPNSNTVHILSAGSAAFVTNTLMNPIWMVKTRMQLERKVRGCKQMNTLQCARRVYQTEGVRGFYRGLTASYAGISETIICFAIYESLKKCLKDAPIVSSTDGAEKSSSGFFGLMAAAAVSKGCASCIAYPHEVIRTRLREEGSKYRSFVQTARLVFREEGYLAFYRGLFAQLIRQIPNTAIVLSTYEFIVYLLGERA

Assay [2] has as its target T2, AEA-DA lipid probe targets in Neuro2a cells (Mus musculus, UniProt D3YZZ5).
T2 sequence (D3YZZ5 35-224): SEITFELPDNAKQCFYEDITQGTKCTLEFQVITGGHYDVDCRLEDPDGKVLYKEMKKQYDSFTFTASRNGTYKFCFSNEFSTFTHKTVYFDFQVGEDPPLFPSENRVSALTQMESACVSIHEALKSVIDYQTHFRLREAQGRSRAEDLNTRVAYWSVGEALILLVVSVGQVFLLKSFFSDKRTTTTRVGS

In assay [3] the target is T3, AEA-DA lipid probe targets in Neuro2a cells (Mus musculus, UniProt Q99L04).
T3 sequence (Q99L04 1-313): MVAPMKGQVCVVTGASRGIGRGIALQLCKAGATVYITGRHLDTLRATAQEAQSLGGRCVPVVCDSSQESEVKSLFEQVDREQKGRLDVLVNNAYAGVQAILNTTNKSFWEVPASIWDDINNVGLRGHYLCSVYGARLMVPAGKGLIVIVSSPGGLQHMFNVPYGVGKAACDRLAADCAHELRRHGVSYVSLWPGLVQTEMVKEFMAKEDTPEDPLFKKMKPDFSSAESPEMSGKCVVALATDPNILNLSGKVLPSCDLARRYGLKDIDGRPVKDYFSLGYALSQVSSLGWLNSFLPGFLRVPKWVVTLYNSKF

For assay [4], the target named is AEA-DA lipid probe targets in Neuro2a cells (Mus musculus, UniProt P36536).
Assay [5] addresses T4, AEA-DA lipid probe targets in Neuro2a cells (Mus musculus, UniProt O88325).
T4 sequence (O88325 22-739): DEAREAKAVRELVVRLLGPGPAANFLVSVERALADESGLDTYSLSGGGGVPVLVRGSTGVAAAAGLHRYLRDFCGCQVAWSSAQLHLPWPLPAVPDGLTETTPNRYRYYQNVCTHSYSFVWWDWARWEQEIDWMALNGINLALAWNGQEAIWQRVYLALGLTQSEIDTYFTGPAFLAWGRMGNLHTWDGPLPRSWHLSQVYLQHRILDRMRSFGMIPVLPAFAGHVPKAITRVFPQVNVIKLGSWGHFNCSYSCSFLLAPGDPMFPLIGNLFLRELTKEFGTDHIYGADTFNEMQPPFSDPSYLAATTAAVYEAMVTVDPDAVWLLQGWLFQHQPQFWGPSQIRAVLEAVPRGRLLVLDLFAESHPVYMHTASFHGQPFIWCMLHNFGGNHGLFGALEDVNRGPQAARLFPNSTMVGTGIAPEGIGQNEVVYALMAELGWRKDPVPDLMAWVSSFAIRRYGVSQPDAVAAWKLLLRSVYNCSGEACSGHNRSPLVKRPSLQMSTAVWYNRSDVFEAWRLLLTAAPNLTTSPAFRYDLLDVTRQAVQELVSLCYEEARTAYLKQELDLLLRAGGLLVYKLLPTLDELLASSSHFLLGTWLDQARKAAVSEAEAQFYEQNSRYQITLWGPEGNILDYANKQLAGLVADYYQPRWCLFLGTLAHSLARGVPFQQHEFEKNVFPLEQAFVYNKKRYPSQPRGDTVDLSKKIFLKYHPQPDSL

Assay [6] addresses T5, AEA-DA lipid probe targets in Neuro2a cells (Mus musculus, UniProt Q9WV54).
T5 sequence (Q9WV54 19-394): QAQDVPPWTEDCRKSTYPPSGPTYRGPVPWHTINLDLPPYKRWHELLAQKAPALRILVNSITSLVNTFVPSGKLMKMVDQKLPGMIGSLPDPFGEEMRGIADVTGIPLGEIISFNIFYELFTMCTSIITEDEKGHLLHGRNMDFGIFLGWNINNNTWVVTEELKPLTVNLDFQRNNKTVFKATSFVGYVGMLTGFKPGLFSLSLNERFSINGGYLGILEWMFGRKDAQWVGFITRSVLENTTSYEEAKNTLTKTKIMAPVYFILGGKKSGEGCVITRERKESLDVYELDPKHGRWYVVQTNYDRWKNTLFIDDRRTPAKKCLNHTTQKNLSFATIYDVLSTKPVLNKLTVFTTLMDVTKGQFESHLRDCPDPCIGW

The target of assay [7] is T6, AEA-DA lipid probe targets in Neuro2a cells (Mus musculus, UniProt P52825).
T6 sequence (P52825 26-658): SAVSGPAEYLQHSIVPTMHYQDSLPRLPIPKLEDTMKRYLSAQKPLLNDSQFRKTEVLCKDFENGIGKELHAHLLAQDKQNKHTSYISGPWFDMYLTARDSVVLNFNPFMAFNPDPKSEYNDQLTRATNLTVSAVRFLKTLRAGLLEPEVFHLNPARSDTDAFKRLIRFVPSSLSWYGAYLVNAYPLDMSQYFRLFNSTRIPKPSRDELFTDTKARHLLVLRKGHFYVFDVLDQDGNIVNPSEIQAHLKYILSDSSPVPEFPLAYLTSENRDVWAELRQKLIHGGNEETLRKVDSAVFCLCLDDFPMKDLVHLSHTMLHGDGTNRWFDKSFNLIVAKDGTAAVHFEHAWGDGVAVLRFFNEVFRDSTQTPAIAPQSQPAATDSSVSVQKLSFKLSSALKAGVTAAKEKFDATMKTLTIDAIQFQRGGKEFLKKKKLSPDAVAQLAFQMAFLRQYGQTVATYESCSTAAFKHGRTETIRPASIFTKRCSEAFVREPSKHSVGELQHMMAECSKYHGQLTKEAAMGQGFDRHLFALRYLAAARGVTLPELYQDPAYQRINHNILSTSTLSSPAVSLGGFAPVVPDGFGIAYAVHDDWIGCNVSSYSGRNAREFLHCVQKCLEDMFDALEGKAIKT

Where two headings read alike, the source gives them in different places.

Chain of AEA-DA lipid probe targets in Neuro2a cells (Mus musculus, UniProt P36536) (P36536 whole entry): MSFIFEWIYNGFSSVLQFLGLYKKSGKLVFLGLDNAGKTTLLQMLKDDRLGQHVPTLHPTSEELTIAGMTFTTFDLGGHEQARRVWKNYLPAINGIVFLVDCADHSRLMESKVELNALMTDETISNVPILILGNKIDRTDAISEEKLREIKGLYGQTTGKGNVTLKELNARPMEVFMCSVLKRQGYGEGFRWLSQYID

In the case of `C=CCN(C)CCCCCCOc1ccc(C(=O)c2ccc(Br)cc2)c(F)c1` [Ro 48-8071, reference compound], the “SILAC ratio Slc25a33” value in assay [1] (competitor 25 μM) stood at 1.0. The “SILAC ratio, Tmed7” value in assay [2] (competitor 25 μM) was 1.1. In addition, in assay [3] (competitor 25 μM), the “SILAC ratio, Dhrs1” value came out at 9.5. Moreover, the “SILAC ratio, Sar1a” value in assay [4] (competitor 25 μM) worked out at 1.1. Moreover, the “SILAC ratio Naglu” value in assay [5] (competitor 25 μM) is on record as 0.3. Moreover, in assay [6] (competitor 25 μM), the “SILAC ratio Asah1” value came to 1.0. Moreover, in assay [7] (competitor 25 μM), the “SILAC ratio, Cpt2” value came to 2.1.

`CN1CCN(C(=O)c2[nH]c3ccc([N+](=O)[O-])cc3c2-c2ccccc2)CC1` [MJN228, (4-Methylpiperazin-1-yl)(5-nitro-3-phenyl-1H-indol-2-yl)methanone]: the “SILAC ratio Slc25a33” value in assay [1] (competitor 10 μM) is given as 1.2; in assay [1] (competitor 25 μM) it was 1.2; in assay [1] (competitor 50 μM), 0.9; in assay [1] (competitor 100 μM), 0.6. Besides, the “SILAC ratio, Tmed7” value in assay [2] (competitor 10 μM) is on record as 1.0; in assay [2] (competitor 25 μM), 1.5; in assay [2] (competitor 100 μM), 2.1. Further, the “SILAC ratio, Dhrs1” value came to 1.4 in assay [3] (competitor 10 μM), 1.8 in assay [3] (competitor 25 μM), 2.4 in assay [3] (competitor 50 μM) and 4.4 in assay [3] (competitor 100 μM). In addition, the “SILAC ratio, Sar1a” value was 1.3 in assay [4] (competitor 10 μM), 1.7 in assay [4] (competitor 25 μM), 1.7 in assay [4] (competitor 50 μM) and 2.2 in assay [4] (competitor 100 μM). The “SILAC ratio Naglu” value in assay [5] (competitor 10 μM) was 1.4; in assay [5] (competitor 25 μM) it was 1.3; in assay [5] (competitor 50 μM), 1.9; in assay [5] (competitor 100 μM) it was 1.7. Also, the “SILAC ratio Asah1” value in assay [6] (competitor 10 μM) came to 1.4; in assay [6] (competitor 25 μM) it was 1.6; in assay [6] (competitor 50 μM), 2.2; in assay [6] (competitor 100 μM), 2.1. In addition, the “SILAC ratio, Cpt2” value in assay [7] (competitor 10 μM) was found to be 1.3; in assay [7] (competitor 25 μM), 1.7; in assay [7] (competitor 50 μM), 2.7; in assay [7] (competitor 100 μM) it was 5.5.

For the compound `CCCCC/C=C\C/C=C\C/C=C\C/C=C\CCCC(=O)NCCO` [AEA, anandamide, reference compound], in assay [1] (competitor 200 μM), the “SILAC ratio Slc25a33” value came out at 1.3. Besides, the “SILAC ratio, Tmed7” value in assay [2] (competitor 200 μM) amounted to 1.5. For the same compound, the “SILAC ratio, Dhrs1” value in assay [3] (competitor 200 μM) is reported as 18.4. In addition, the “SILAC ratio Naglu” value in assay [5] (competitor 200 μM) is 1.3. Moreover, the “SILAC ratio Asah1” value in assay [6] (competitor 200 μM) was found to be 0.8. For the same compound, the “SILAC ratio, Cpt2” value in assay [7] (competitor 200 μM) was 1.1.

Regarding `CN1CCN(C(=O)c2c(-c3ccccc3)c3cc([N+](=O)[O-])ccc3n2C)CC1` [KML110, (1-Methyl-5-nitro-3-phenyl-1H-indol-2-yl)(4-methylpiperazin-1-yl)methanone], the “SILAC ratio Slc25a33” value in assay [1] (competitor 25 μM) worked out at 1.4. Besides, the “SILAC ratio, Tmed7” value in assay [2] (competitor 25 μM) was 1.6. The “SILAC ratio, Dhrs1” value in assay [3] (competitor 25 μM) is 2.7. In assay [4] (competitor 25 μM), the “SILAC ratio, Sar1a” value is listed as 1.4. Moreover, the “SILAC ratio Naglu” value in assay [5] (competitor 25 μM) is 1.4. Further, the “SILAC ratio Asah1” value in assay [6] (competitor 25 μM) was determined as 1.2. The “SILAC ratio, Cpt2” value in assay [7] (competitor 25 μM) came out at 1.5.

On to `O=C(/C=C/c1cccnc1)NCCCCC1CCN(C(=O)c2ccccc2)CC1` [FK-866, reference compound], for which the “SILAC ratio Slc25a33” value in assay [1] (competitor 25 μM) is recorded as 1.2. Besides, in assay [2] (competitor 25 μM), the “SILAC ratio, Tmed7” value was 1.1. Besides, in assay [3] (competitor 25 μM), the “SILAC ratio, Dhrs1” value came to 8.0. Moreover, in assay [4] (competitor 25 μM), the “SILAC ratio, Sar1a” value turned out to be 1.0. The “SILAC ratio Naglu” value in assay [5] (competitor 25 μM) came out at 1.3. Moreover, in assay [6] (competitor 25 μM), the “SILAC ratio Asah1” value is reported as 1.3. Also, in assay [7] (competitor 25 μM), the “SILAC ratio, Cpt2” value worked out at 3.1.

For the origin of these results see patent US10168342B2, “Lipid probes and uses thereof” (THE SCRIPPS RESEARCH INSTITUTE, priority 2015, dated 2019).
